Among the data in ChEMBL document CHEMBL1136160, “Design, synthesis and evaluation of novel azasugar-based MMP/ADAM inhibitors” (Bioorg Med Chem Lett, 2003) are Ki values, retold here.

For test [1], the target named is Disintegrin and metalloproteinase domain-containing protein 17 (Homo sapiens, UniProt P78536). The experiment in a line: Inhibition of recombinant human tumor necrosis factor-alpha converting enzyme.
A further test deals with Stromelysin-1 (Homo sapiens, UniProt P08254). The experiment in a line: Inhibition of recombinant human matrix metalloprotease-3.
Chain of Stromelysin-1 (P08254 whole entry): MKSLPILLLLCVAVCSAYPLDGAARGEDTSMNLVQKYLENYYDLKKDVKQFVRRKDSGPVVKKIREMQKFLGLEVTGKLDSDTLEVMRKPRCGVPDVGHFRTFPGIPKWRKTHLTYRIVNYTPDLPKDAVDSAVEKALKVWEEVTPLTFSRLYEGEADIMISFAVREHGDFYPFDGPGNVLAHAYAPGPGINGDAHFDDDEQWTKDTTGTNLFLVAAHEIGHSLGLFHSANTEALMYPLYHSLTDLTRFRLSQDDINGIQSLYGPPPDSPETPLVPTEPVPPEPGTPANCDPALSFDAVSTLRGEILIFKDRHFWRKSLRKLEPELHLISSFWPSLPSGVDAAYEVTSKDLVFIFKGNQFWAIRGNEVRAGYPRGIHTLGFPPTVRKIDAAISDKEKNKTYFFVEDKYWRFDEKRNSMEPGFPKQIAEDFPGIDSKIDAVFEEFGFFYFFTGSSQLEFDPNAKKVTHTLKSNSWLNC
Test [2] concerns the target Matrix metalloproteinase-9 (Homo sapiens, UniProt P14780). The experiment in a line: Inhibition of recombinant human matrix metalloprotease-9 (gelatinase B).
The target of test [3] is T1, Interstitial collagenase (Homo sapiens, UniProt P03956).
T1 sequence (P03956 whole entry): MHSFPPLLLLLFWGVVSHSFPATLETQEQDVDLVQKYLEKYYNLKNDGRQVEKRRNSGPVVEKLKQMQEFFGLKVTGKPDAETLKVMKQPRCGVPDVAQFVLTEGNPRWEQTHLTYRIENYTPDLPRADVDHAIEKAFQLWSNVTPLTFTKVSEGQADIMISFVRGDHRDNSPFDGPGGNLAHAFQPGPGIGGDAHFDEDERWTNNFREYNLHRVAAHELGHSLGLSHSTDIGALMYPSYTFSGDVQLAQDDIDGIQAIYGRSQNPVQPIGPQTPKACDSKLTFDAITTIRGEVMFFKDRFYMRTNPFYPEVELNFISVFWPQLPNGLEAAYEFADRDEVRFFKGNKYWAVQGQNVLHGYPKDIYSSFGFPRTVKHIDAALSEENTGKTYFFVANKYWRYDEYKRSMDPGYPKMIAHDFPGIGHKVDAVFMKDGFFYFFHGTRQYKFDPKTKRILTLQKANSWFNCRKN
The experiment in a line: Inhibition of Recombinant human matrix metalloprotease-1.

Test [4] has as its target T1, Interstitial collagenase. The experiment in a line: Inhibition of recombinant human matrix metalloprotease-1.

Chain of Matrix metalloproteinase-9 (P14780 whole entry): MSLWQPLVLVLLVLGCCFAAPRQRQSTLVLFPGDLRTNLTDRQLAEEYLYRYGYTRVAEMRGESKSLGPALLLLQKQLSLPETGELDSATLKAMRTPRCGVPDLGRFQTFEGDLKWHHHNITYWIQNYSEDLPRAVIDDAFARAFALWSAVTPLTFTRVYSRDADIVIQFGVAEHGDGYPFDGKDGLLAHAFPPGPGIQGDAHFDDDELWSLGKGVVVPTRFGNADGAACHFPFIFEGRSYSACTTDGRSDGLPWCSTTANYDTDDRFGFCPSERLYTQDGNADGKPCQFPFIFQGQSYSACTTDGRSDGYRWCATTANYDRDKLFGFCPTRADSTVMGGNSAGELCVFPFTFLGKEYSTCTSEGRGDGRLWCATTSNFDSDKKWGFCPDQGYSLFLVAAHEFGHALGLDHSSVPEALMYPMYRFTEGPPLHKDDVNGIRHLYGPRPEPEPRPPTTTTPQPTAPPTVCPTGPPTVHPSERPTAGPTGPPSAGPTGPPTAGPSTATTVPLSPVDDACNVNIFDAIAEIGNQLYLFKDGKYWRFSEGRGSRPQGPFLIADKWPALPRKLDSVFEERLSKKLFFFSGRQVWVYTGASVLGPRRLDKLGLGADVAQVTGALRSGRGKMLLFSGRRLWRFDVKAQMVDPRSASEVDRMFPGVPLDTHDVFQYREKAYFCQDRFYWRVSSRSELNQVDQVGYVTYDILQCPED
Chain of Disintegrin and metalloproteinase domain-containing protein 17 (P78536 whole entry, the tested form may be a part): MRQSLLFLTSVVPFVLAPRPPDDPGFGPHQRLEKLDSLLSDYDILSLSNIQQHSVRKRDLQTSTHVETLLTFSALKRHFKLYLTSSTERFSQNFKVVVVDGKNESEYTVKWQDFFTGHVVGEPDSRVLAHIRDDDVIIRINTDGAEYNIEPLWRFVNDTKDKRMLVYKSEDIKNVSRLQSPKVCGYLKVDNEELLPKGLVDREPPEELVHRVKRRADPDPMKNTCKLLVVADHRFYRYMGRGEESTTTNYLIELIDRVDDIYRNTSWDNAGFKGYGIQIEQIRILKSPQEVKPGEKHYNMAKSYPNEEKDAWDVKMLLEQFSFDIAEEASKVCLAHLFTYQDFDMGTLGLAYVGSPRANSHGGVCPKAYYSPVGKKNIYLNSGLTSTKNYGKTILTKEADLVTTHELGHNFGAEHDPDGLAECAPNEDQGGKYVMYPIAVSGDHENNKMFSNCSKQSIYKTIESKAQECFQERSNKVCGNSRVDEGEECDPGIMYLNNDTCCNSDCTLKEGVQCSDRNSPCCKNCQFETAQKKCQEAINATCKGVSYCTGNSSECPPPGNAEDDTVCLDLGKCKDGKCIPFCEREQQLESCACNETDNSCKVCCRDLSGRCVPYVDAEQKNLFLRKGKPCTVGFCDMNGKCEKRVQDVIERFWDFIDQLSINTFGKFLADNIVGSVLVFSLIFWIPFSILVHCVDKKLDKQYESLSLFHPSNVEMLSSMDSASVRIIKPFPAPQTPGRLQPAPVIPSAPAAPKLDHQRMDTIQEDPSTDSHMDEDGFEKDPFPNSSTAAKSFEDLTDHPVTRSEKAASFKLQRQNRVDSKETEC

As to `COc1ccc(S(=O)(=O)N2C[C@@H]3OC(C)(C)O[C@H]3[C@@H](O)[C@@H]2C(=O)NO)cc1`, the Ki in test [1] amounted to 40 nM; at Stromelysin-1, 3.7 nM; in test [2], 21 nM; on Interstitial collagenase [3], 26 nM.
Take `COc1ccc(S(=O)(=O)N2C[C@H](O)[C@H]3OC(C)(C)O[C@H]3[C@@H]2C(=O)NO)cc1`: the inhibition constant (Ki) in test [1] was found to be 22 nM; at Stromelysin-1 it was 44 nM; on Interstitial collagenase [4], 554 nM; in test [2] it was 310 nM.
In the case of `COc1ccc(S(=O)(=O)N2C[C@@H]3OC(C)(C)O[C@H]3[C@@H](OC(C)=O)[C@@H]2C(=O)NO)cc1`, the Ki in test [1] is 21 nM; at Stromelysin-1, 50 nM; in test [2], 47 nM; at Interstitial collagenase [3], 162 nM.

Broadly, the Ki is a dissociation constant, usually derived from enzyme kinetics or from competition with a known ligand.
